Experimental findings from ChEMBL document CHEMBL4257529, “Antifungal amphiphilic kanamycins: new life for an old drug” (Medchemcomm, 2018) are described below.

What all share (assay type): functional
Test [1] relates to Fusarium graminearum. Description: Antifungal activity against Fusarium graminearum by microbroth dilution assay. For orientation: Broth dilution looks for growth in wells or tubes with falling amounts of substance.
Test [2] relates to Staphylococcus aureus. Description: Antibacterial activity against Staphylococcus aureus ATCC 25923 after 12 to 18 hrs.
Test [3] deals with Escherichia coli. Description: Antibacterial activity against Escherichia coli ATCC 25922 after 12 to 18 hrs.
The subject of test [4] is Fusarium graminearum. Description: Antifungal activity against Fusarium graminearum after 12 to 18 hrs.
The test system of test [5] is Aspergillus flavus. In words: Antifungal activity against Aspergillus flavus after 12 to 18 hrs.

Converted amounts (≈) assume the structure as drawn.

The MIC is the least concentration at which growth counts as inhibited. On to `CCCCCCCCO[C@H]1[C@@H](O[C@@H]2[C@@H](O)[C@H](O[C@H]3O[C@H](CN)[C@@H](O)[C@H](O)[C@H]3N)[C@@H](N)C[C@H]2N)O[C@H](CO)[C@@H](O)[C@@H]1O`, for which inhibition of growth in test [1] (MIC) required 20 µg/mL (≈ 33.5 µM).

`CCCCCCCCO[C@@H]1[C@@H](O)[C@@H](O[C@@H]2[C@@H](O)[C@H](O[C@H]3O[C@H](CN)[C@@H](O)[C@H](O)[C@H]3N)[C@@H](N)C[C@H]2N)O[C@H](CO)[C@H]1O` gave an MIC in test [1] of 62.5 µg/mL (≈ 105 µM).

Consider `CCCCCCCCO[C@H]1[C@H](O)[C@@H](N)[C@@H](O[C@H]2[C@H](O)[C@@H](O[C@H]3O[C@H](CO)[C@@H](O)[C@H](O)[C@H]3O)[C@H](N)C[C@@H]2N)O[C@@H]1CN`, for which the MIC in test [1] was above 500 µg/mL.

In the case of `CCCCO[C@H]1[C@H](N)[C@@H](O)[C@@H](O[C@@H]2[C@@H](O)[C@H](O[C@H]3O[C@H](CN)[C@@H](O)[C@H](O)[C@H]3O)[C@@H](N)C[C@H]2N)O[C@@H]1CO`, the MIC was 125 µg/mL (≈ 231 µM) in test [2], at least 250 µg/mL in test [3], at least 500 µg/mL in test [4] and above 500 µg/mL in test [5].

With `CCCCCCCOC[C@H]1O[C@H](O[C@@H]2[C@@H](O)[C@H](O[C@H]3O[C@H](CN)[C@@H](O)[C@H](O)[C@H]3O)[C@@H](N)C[C@H]2N)[C@H](O)[C@@H](N)[C@@H]1OCCCCCCC`, the MIC in test [2] turned out to be 125 µg/mL (≈ 184 µM); in test [3], 125 µg/mL (≈ 184 µM); in test [4] it was 15.6 µg/mL (≈ 22.9 µM); in test [5], 500 µg/mL (≈ 734 µM).

As to `CCCCCCCCO[C@@H]1[C@@H](O[C@H]2O[C@H](CO)[C@@H](O)[C@H](O)[C@H]2O)[C@H](N)C[C@H](N)[C@H]1O[C@H]1O[C@H](CN)[C@@H](O)[C@H](O)[C@H]1N`, the MIC in test [1] was above 500 µg/mL.

As to `CCCCCCCCOC[C@H]1O[C@H](O[C@@H]2[C@@H](O)[C@H](O[C@H]3O[C@H](CN)[C@@H](O)[C@H](O)[C@H]3O)[C@@H](N)C[C@H]2N)[C@H](O)[C@@H](N)[C@@H]1OCCCCCCCC`, the MIC in test [2] is at least 250 µg/mL; in test [3], at least 250 µg/mL; in test [4], 31.3 µg/mL (≈ 44.2 µM); in test [5], above 500 µg/mL.

For `CCCCOC[C@H]1O[C@H](O[C@@H]2[C@@H](O)[C@H](O[C@H]3O[C@H](CN)[C@@H](O)[C@H](O)[C@H]3O)[C@@H](N)C[C@H]2N)[C@H](O)[C@@H](N)[C@@H]1OCCCC`, the MIC in test [2] was at least 250 µg/mL; in test [3] it was at least 250 µg/mL; in test [4], 125 µg/mL (≈ 209 µM); in test [5], above 500 µg/mL.

Turning to `CCCCCCO[C@H]1[C@H](N)[C@@H](O)[C@@H](O[C@@H]2[C@@H](O)[C@H](O[C@H]3O[C@H](CN)[C@@H](O)[C@H](O)[C@H]3O)[C@@H](N)C[C@H]2N)O[C@@H]1CO`, the MIC in test [2] is 64 µg/mL (≈ 113 µM); in test [3], at least 250 µg/mL; in test [4], 31.3 µg/mL (≈ 55 µM); in test [5], above 500 µg/mL.

On to `CCCCCCOC[C@H]1O[C@H](O[C@@H]2[C@@H](O)[C@H](O[C@H]3O[C@H](CN)[C@@H](O)[C@H](O)[C@H]3O)[C@@H](N)C[C@H]2N)[C@H](O)[C@@H](N)[C@@H]1OCCCCCC`, for which the MIC in test [2] is 64 µg/mL (≈ 98 µM); in test [3], at least 250 µg/mL; in test [4], 15.6 µg/mL (≈ 23.9 µM); in test [5], 500 µg/mL (≈ 766 µM).
